Columns and labels:
Type in all cases: in vivo
[1] = system: Plasmopara viticola; experiment: Downy Mildew of Grape (PLASVI), 96 hour protectant; conditions: grape vines (cultivar Carignane), sprayed at 100 ppm, inoculated after 96 hours (protectant)
Experimental: Compound Formulation: […] Final treatment volumes were obtained by adding nine volumes 0.05kOO aqueous Tween-20 or Triton X-100, depending upon the pathogen. Downy Mildew of Grape (Plasmogara viticola-[…]) (96 Hour Protectant): Vines (cultivar Carignane) were grown from seed in a soilless peat-based potting mixture (Metromix) until the seedlings were 10-20 cm tall. These plants were then sprayed to run off with the test compound at a rate of 100 ppm. After 96 hours the test plants were inoculated by spraying with an aqueous sporangia suspension of Plasmopara viticola. The plants were then transferred to the greenhouse until disease developed on the untreated control plants. The following table presents the activity of typical compounds of the present invention when evaluated in these experiments. The effectiveness of the test compounds in controlling disease was rated using the following scale: […]

[2] = system: Leptosphaeria nodorum; experiment: Glume blotch of wheat (LEPTNO); conditions: wheat (cultivar Monon), sprayed at 100 ppm, inoculated after 24 hours
Experimental: Compound Formulation: […] Final treatment volumes were obtained by adding nine volumes 0.05kOO aqueous Tween-20 or Triton X-100, depending upon the pathogen. Glume blotch of wheat (Leptosphaeria nodorum-[…]): Wheat (cultivar Monon) was grown from seed in a soilless peat-based potting mixture (Metromix) until the seedlings were 1-2 leaf (BBCH 12). These plants were then sprayed to run off with the test compound at a rate of 100 ppm. After 24 hours the test plants were inoculated with an aqueous spore suspension of Leptosphaeria nodorum. The plants were then transferred to the greenhouse until disease developed on the untreated control plants. Brown rust (Puccinia recondita-PUCCRT): Wheat (cultivar Monon) was grown from seed in a soilless peat-based potting mixture (Metromix) until the seedlings were 1-2 leaf (BBCH 12). These plants were then sprayed to run off with the test compound at a rate of 100 ppm. After 24 hours the test plants were inoculated with an aqueous spore suspension of Puccinia recondita. The plants were then transferred to the greenhouse until disease developed on the untreated control plants. The following table presents the activity of typical compounds of the present invention when evaluated in these experiments. The effectiveness of the test compounds in controlling disease was rated using the following scale: […]

[3] = system: Erysiphe graminis; experiment: Powdery Mildew of Wheat (ERYSGT); conditions: wheat (cultivar Monon), inoculated, sprayed at 25 ppm after 48 hours
Experimental: Compound Formulation: […] Final treatment volumes were obtained by adding nine volumes 0.05kOO aqueous Tween-20 or Triton X-100, depending upon the pathogen. Powdery Mildew of Wheat (Erysiphe graminis-[…]): Wheat (cultivar Monon) was grown in a soilless peat-based potting mixture (Metromix) until the seedlings were 1-2 leaf (BBCH 12). These plants were then inoculated with Erysiphe graminis by dusting spores from stock plants onto the test plants. After 48 hours the plants were sprayed to run off with the test compound at a rate of 25 ppm and then kept in the greenhouse until disease developed on the untreated control plants. The following table presents the activity of typical compounds of the present invention when evaluated in these experiments. The effectiveness of the test compounds in controlling disease was rated using the following scale: […]

[4] = system: Septoria tritici; experiment: Septoria leaf spot (SEPTTR); conditions: wheat (cultivar Monon), sprayed at 100 ppm, inoculated after 24 hours
Experimental: Compound Formulation: […] Final treatment volumes were obtained by adding nine volumes 0.05kOO aqueous Tween-20 or Triton X-100, depending upon the pathogen. Septoria leaf spot (Septoria tritici-[…]): Wheat (cultivar Monon) was grown from seed in a soilless peat-based potting mixture (Metromix) until the seedlings were 1-2 leaf (BECH 12). These plants were then sprayed to run off with the test compound at a rate of 100 ppm. After 24 hours the test plants were inoculated with an aqueous spore suspension of Septoria tritici. The plants were then transferred to the greenhouse until disease developed on the untreated control plants. The following table presents the activity of typical compounds of the present invention when evaluated in these experiments. The effectiveness of the test compounds in controlling disease was rated using the following scale: […]

CCCOCCOCCOc1nc(OCc2ccccc2C(=NOC)C(=O)NC)c(Cl)cc1Cl [Compound 19]
PLASVI control of plant disease [1]: + (+ = 25-74% control of plant disease)
LEPTNO control of plant disease [2]: ++ (++ = 75-100 % control of plant disease)
ERYSGT control of plant disease [3]: + (+ = 25-74% control of plant disease)

CNC(=O)C(=NOC)c1ccccc1COc1cccc(OCCOCC2CO2)n1 (stereo not drawn) [Compound 74]
SEPTTR control of plant disease [4]: ++ (++ = 75-100 % control of plant disease)

CCCCCCOCCOc1cccc(OCc2ccccc2C(=NOC)C(=O)NC)n1 [Compound 70]
PLASVI control of plant disease [1]: + (+ = 25-74% control of plant disease)
SEPTTR control of plant disease [4]: + (+ = 25-74% control of plant disease)

CNC(=O)C(=NOC)c1ccccc1COc1cccc(OCCOC2CCCCC2)n1 [Compound 62]
PLASVI control of plant disease [1]: ++ (++ = 75-100 % control of plant disease)
SEPTTR control of plant disease [4]: + (+ = 25-74% control of plant disease)

CCOc1cccc2nc(Sc3cccc(OCc4ccccc4C(=NOC)C(=O)NC)n3)sc12 [Compound 13]
PLASVI control of plant disease [1]: + (+ = 25-74% control of plant disease)
LEPTNO control of plant disease [2]: + (+ = 25-74% control of plant disease)
ERYSGT control of plant disease [3]: − (− = 0-24% control of plant disease)

CCCOCCCOc1cccc(OCc2ccccc2C(=NOC)C(=O)NC)n1 [Compound 89]
PLASVI control of plant disease [1]: − (− = 0-24% control of plant disease)
LEPTNO control of plant disease [2]: − (− = 0-24% control of plant disease)
ERYSGT control of plant disease [3]: + (+ = 25-74% control of plant disease)

CCOc1ccccc1Oc1cccc(OCc2ccccc2C(=NOC)C(=O)NC)n1 [Compound 64]
PLASVI control of plant disease [1]: ++ (++ = 75-100 % control of plant disease)
SEPTTR control of plant disease [4]: ++ (++ = 75-100 % control of plant disease)

Benzeneacetamide, 2-[[[6-(2-(2-ethoxyethoxy)ethoxy) -2-pyridinyl]oxy]methyl]-α-(methoxyimino)-N-methyl- [Compound 21]
PLASVI control of plant disease [1]: ++ (++ = 75-100 % control of plant disease)
LEPTNO control of plant disease [2]: + (+ = 25-74% control of plant disease)

CNC(=O)C(=NOC)c1ccccc1COc1cccc(SCCSC(C)(C)C)n1 [Compound 52]
PLASVI control of plant disease [1]: ++ (++ = 75-100 % control of plant disease)
LEPTNO control of plant disease [2]: + (+ = 25-74% control of plant disease)
ERYSGT control of plant disease [3]: ++ (++ = 75-100 % control of plant disease)

CCCCC(CC)COCCOc1cccc(OCc2ccccc2C(=NOC)C(=O)NC)n1 (stereo not drawn) [Compound 56]
PLASVI control of plant disease [1]: ++ (++ = 75-100 % control of plant disease)
SEPTTR control of plant disease [4]: ++ (++ = 75-100 % control of plant disease)

CNC(=O)C(=NOC)c1cccc(F)c1COc1cccc(OCCCOC(C)C)n1 [Compound 79]
SEPTTR control of plant disease [4]: ++ (++ = 75-100 % control of plant disease)

C=CC(COC)Oc1cccc(OCc2ccccc2C(=NOC)C(=O)NC)n1 (stereo not drawn) [Compound 72]
SEPTTR control of plant disease [4]: − (− = 0-24% control of plant disease)

CNC(=O)C(=NOC)c1ccccc1COc1cccc(OCCCOC(C)C)n1 [Compound 54]
PLASVI control of plant disease [1]: ++ (++ = 75-100 % control of plant disease)
LEPTNO control of plant disease [2]: ++ (++ = 75-100 % control of plant disease)
ERYSGT control of plant disease [3]: ++ (++ = 75-100 % control of plant disease)

CCOc1ccc(Sc2cccc(OCc3ccccc3C(=NOC)C(=O)NC)n2)cc1 [Compound 85]
SEPTTR control of plant disease [4]: − (− = 0-24% control of plant disease)

CNC(=O)C(=NOC)c1ccccc1COc1cccc(Oc2ccccc2OC)n1 [Compound 81]
SEPTTR control of plant disease [4]: + (+ = 25-74% control of plant disease)

CNC(=O)C(=NOC)c1ccccc1COc1cccc(OCCOC2CCC2)n1 [Compound 58]
PLASVI control of plant disease [1]: ++ (++ = 75-100 % control of plant disease)
SEPTTR control of plant disease [4]: ++ (++ = 75-100 % control of plant disease)

CCCCCOCCOc1cccc(OCc2c(F)cccc2C(=NOC)C(=O)NC)n1 [Compound 75]
SEPTTR control of plant disease [4]: ++ (++ = 75-100 % control of plant disease)

CNC(=O)C(=NOC)c1ccccc1COc1cccc(OCCOC(CCC#N)OC)n1 (stereo not drawn) [Compound 73]
SEPTTR control of plant disease [4]: − (− = 0-24% control of plant disease)

CCCCCOCCOc1cccc(OCc2ccccc2C(=NOC)C(=O)NC)n1 [Compound 61]
PLASVI control of plant disease [1]: ++ (++ = 75-100 % control of plant disease)
SEPTTR control of plant disease [4]: ++ (++ = 75-100 % control of plant disease)

CCCOCCOc1cccc(OCc2c(Cl)cccc2C(=NOC)C(=O)NC)n1 [Compound 60]
PLASVI control of plant disease [1]: ++ (++ = 75-100 % control of plant disease)
SEPTTR control of plant disease [4]: ++ (++ = 75-100 % control of plant disease)

CNC(=O)C(=NOC)c1cccc(Cl)c1COc1cccc(OCCCOC(C)C)n1 [Compound 80]
SEPTTR control of plant disease [4]: ++ (++ = 75-100 % control of plant disease)

CCCCCOCCOc1cccc(OCc2c(Cl)cccc2C(=NOC)C(=O)NC)n1 [Compound 76]
SEPTTR control of plant disease [4]: ++ (++ = 75-100 % control of plant disease)

CNC(=O)C(=NOC)c1ccccc1COc1cccc(OCc2ccc(OC)cc2)n1 [Compound 83]
SEPTTR control of plant disease [4]: ++ (++ = 75-100 % control of plant disease)

CCOCCCOc1cccc(OCc2ccccc2C(=NOC)C(=O)NC)n1 [Compound 55]
LEPTNO control of plant disease [2]: + (+ = 25-74% control of plant disease)
ERYSGT control of plant disease [3]: + (+ = 25-74% control of plant disease)

CNC(=O)C(=NOC)c1ccccc1COc1cccc(OCCCOCCCOC)n1 [Compound 71]
SEPTTR control of plant disease [4]: − (− = 0-24% control of plant disease)

CCOc1ccc(Oc2cccc(OCc3ccccc3C(=NOC)C(=O)NC)n2)cc1 [Compound 68]
PLASVI control of plant disease [1]: ++ (++ = 75-100 % control of plant disease)
SEPTTR control of plant disease [4]: + (+ = 25-74% control of plant disease)

CNC(=O)C(=NOC)c1ccccc1COc1cccc(SCc2ccc(OC)cc2)n1 [Compound 57]
SEPTTR control of plant disease [4]: ++ (++ = 75-100 % control of plant disease)

CNC(=O)C(=NOC)c1ccccc1COc1cccc(OCCCCCOCc2ccccc2)n1 [Compound 66]
PLASVI control of plant disease [1]: ++ (++ = 75-100 % control of plant disease)
SEPTTR control of plant disease [4]: ++ (++ = 75-100 % control of plant disease)

CNC(=O)C(=NOC)c1ccccc1COc1cccc(OCc2ccccc2OC)n1 [Compound 82]
SEPTTR control of plant disease [4]: ++ (++ = 75-100 % control of plant disease)

CCOCCCOc1cccc(OCc2c(F)cccc2C(=NOC)C(=O)NC)n1 [Compound 77]
SEPTTR control of plant disease [4]: ++ (++ = 75-100 % control of plant disease)

CCOCCCOc1cccc(OCc2c(Cl)cccc2C(=NOC)C(=O)NC)n1 [Compound 78]
SEPTTR control of plant disease [4]: ++ (++ = 75-100 % control of plant disease)

CCOCCCCOc1cccc(OCc2ccccc2C(=NOC)C(=O)NC)n1 [Compound 65]
PLASVI control of plant disease [1]: ++ (++ = 75-100 % control of plant disease)
SEPTTR control of plant disease [4]: ++ (++ = 75-100 % control of plant disease)

Reference: patent US6369083B1, “2-methoxyimino-2 (pyrinyloxymethyl) phenyl acetamides with polyether derivatives on the pyridine ring” (Dow AgroSciences LLC, priority 1998, dated 2002)
